How the values were obtained:
[1] = Oxidation of NADPH under approximate physiologic conditions (HPLC, NADP+ formation); assay type: biochemical; conditions: substrate NADPH, pH 7.5, Michaelis-Menton fit, triplicate; for Km: read-out: KM (dissociation or Michaelis constant), NADPH oxidation
Protocol: The following stock solutions were prepared: • Stock NADPH (Sigma N 7505) (prepared fresh daily): 12.2 mg/(10 mL. 833.4 mg/mmol)=1.46 mM • Stock GdTex: 5.76 mg/(10.0 mL water. 1148 mg/mmol)=501.7 μM • Stock 4× Buffer: 200 mM HEPES, pH 7.5; 400 mM NaCl; 0.4 mM EDTA • Stock LuTex: 5.02 mg/(10.0 mL water×1166 mg/mmol)=431 μM These were combined to form the reaction mixtures analyzed by HPLC, for example: • 250 μL 4× Buffer, 250 μL NADPH Stock, 427 μL Water, 72.7 μL GdTex Stock • 250 μL 4× Buffer, 250 μL NADPH Stock, 457.7 μL Water, 42.3 μL LuTex Stock The HPLC Method employed was as follows: 1. HPLC Operating Parameters: • System—HPLC system capable of delivering gradient mobile phase • Detector wavelength—260 nm • Injection Volume—20 μL • Pressure—ca: 2000 psi • Column Temperature—40° C. • Column—Nucleogel DEAE 60-7 125×4 mm 2. Mobile Phase: • Solution A—0.75 M KH2PO4, pH 3.8 • Solution B—0.016 M KH2PO4, pH 3.8
A reaction mixture was prepared containing NADPH, water and sufficient buffer to maintain the solution at pH 7.5. Texaphyrin, 0.1 molar equivalent to the NADPH, was added to this reaction mixture, vortexed briefly, and then the solution placed in the HPLC sampler for immediate injection. Further injections were made at appropriate time points, whereupon the integrated peak areas of both NADPH and NADP^+ were measured and used to calculate the extent of reaction at a given time point.
Provided that the amount of texaphyrin was sufficiently low relative to substrate, the percentage of NADP^+ generated by the reaction plotted against time initially gave a straight line. (For LuTex, it was necessary to drop the catalyst concentration to ca. 0.05 equivalent.) The slope of initial time points (eg., plotting as mM concentration vs time in hours) provided a rate which was used as a point in a saturation (Michaelis-Menton) plot. This process was repeated at various concentrations of NADPH. Data (in triplicate) was fitted to the Michaelis-Menton equation (initial reaction velocity/catalyst concentration)=(kcat×substrate concentration)/(KM+substrate concentration), where substrate is NADPH, catalyst is texaphyrin complex, kcat is the first-order rate constant for the catalyst, and KM is the dissociation (or Michaelis) constant for the catalyst/substrate complex. For GdTex, kcat=0.049±0.003 min^−1 and KM=1.69±0.17 mM. For LuTex, kcat=0.119±0.011 min^−1 and KM=0.56±0.20 mM.
1B. By following the procedure of Example 1A using a single concentration of NADPH and employing 0.1 equivalent of test compound, the results illustrated in FIG. 16 were obtained.

[2] = system: MES-SA human uterine cells; experiment: Proliferation of MES-SA cells with ascorbate and texaphyrin (MTT); assay type: cell-based; conditions: for cytotoxic effect of texaphyrin with 333 μM ascorbate: texaphyrin 25-100 μM, 5 hours exposure, MTT after 72 hours; for cytotoxic effect of texaphyrin at lower concentrations of ascorbate: ascorbate below 333 μM (111 μM and 62.5 μM for GdTex); for cytotoxic/inhibitory effect of texaphyrin in the absence of ascorbate: no ascorbate, texaphyrin up to 100 μM
Protocol: The proliferation of MES-SA human uterine cells (Harker, W. G.; MacKintosh, F. R.; Sikic, B. I. Cancer Res. 1983, 43, 4943-4950) grown in RPMI-1640 medium in the presence of ascorbate or complex was used to assess the formation of hydrogen peroxide under cell culture conditions.
5A. Materials and Methods. MES-SA cells were allowed to adhere to (4) 96-well microtiter plates (4000 cells per well) overnight in 160 μL RPMI medium. Stock ascorbate 3.0 mM in medium (80 μL) was serially diluted (1:3) in rows B through F (discarding the final 80 μL). Row G was used for no-ascorbate control. Stock solutions of GdTex (2 mM in 5% mannitol) diluted in medium and 5% mannitol were prepared and added to the plates to give a final volume of 200 μL in all wells. Columns 2 and 3 contained 100 μM GdTex; columns 4 and 5 contained 75 μM GdTex, columns 6 and 7 contained 50 μM GdTex; columns 8 and 9 contained 25 μM GdTex; and columns 10 and 11 contained no GdTex (all concentrations final). Final mannitol concentration was 0.25% in all wells. The plates were incubated at 37 C under a 5% CO2/95% air atmosphere. Complex-containing medium was exchanged for fresh medium after 5 hours, and plates were incubated an additional 72 hours prior to analysis for viability using the tetrazolium dye, MTT (Mosmann, T. J. Immunol. Methods 1983, 65, 55-63). In brief, 20 μL MTT dye (Sigma Chemical, St. Louis, Mo., catalogue no. M 2128, 5 mg/mL solution in phosphate buffered saline) was added to cells in media to give a final volume of 200 μL. The plates were incubated at 37° C. for ca. 2 hours, whereupon the media was removed and isopropyl alcohol (100 μL/well) was added. Plates were vortexed for ca. 3 minutes to dissolve MTT formazan, then read on a microplate reader at 560-650 nm. Plate absorbances were normalized to wells containing neither ascorbate nor GdTex to allow plate to plate comparison. Data for each concentration of GdTex and ascorbate is the average of eight wells.
The proliferation of MES-SA human uterine cells grown in RPMI-1640 medium in the presence of ascorbate and LuTex was used to assess the production of hydrogen peroxide under cell culture conditions following the protocol outlined in the previous example.

MES-SA cells = experiment: Response of MES-SA cells to ionizing radiation, microtiter plate format (MTT); assay type: cell-based, human
Protocol: The response of MES-SA cells to ionizing radiation was studied using the microtiter plate format to confirm radiation sensitization potential. This assay is used to assess rapidly the effects of irradiation under a variety of conditions.
10A. Materials and Methods. MES-SA cells were incubated at 37° C. and allowed to adhere to 96-well microtiter plates (1000 cells per well) overnight in 160 μL McCoys 5A containing 10% FBS (Gibco-BRL) and ca. 2% penicillin/streptomycin solution (Sigma). BSO or media (20 μL) was added, respectively to test and control wells, 24 h prior to irradiation. Metallotexaphyrin complex (up to 100 μM) was added to the test wells to give a final volume of 200 μL, 18-24 h prior to irradiation. Plates were irradiated using a 137Cs irradiator (Model 40 Gammacell, J. L. Shepherd & Assoc., San Fernando, Calif.) at a dose rate of 33.25 Rad/min. A lead brick (2″ diameter) was positioned to protect a column of wells (no. 11) from ionizing radiation. Plate absorbances were normalized to shielded wells to allow plate-to-plate comparison. […] Reversing the position of texaphyrin complex-containing wells had no effect on assay outcome. Medium was exchanged immediately after irradiation, and plates were incubated an additional 120 h prior to analysis for viability using the MTT assay (as described, e.g., in Example 5).

animal tumor models = conditions: reported in the literature; cited from earlier work

## CC(=O)[O-].CC(=O)[O-].CCc1c(CC)c2cc3nc(cnc4cc(OCCOCCOCCOC)c(OCCOCCOCCOC)cc4ncc4nc(cc1[n-]2)C(CCCO)=C4C)C(C)=C3CCCO.O.[Gd+3] [GdTex, motexafin gadolinium]
[1]
  kcat (first-order rate constant for the catalyst), NADPH oxidation: 0.000817 ± 5e-05 s⁻¹
  Km: 1690 ± 170 µM
[2]
  cytotoxic effect of texaphyrin with 333 μM ascorbate: complete cytotoxicity
  cytotoxic effect of texaphyrin at lower concentrations of ascorbate: dose-response was observed
  cytotoxic/inhibitory effect of texaphyrin in the absence of ascorbate: no cytotoxic effect
MES-SA cells; 100 μM GdTex, no BSO (FIG. 17A)
  radiation sensitization: Radiation sensitization became more significant
MES-SA cells; all cells pre-incubated with 100 μM BSO (FIG. 17B)
  effect on apparent viability after irradiation with BSO: greater GdTex-dependent decrease in apparent viability
MES-SA cells; up to 50 μM GdTex for 24 h prior to irradiation, no BSO, adjusted for GdTex alone (FIG. 17A)
  effect on apparent viability after irradiation: small effect on apparent viability
Animal tumor models
  radiation sensitization in animal tumor models: enhance the efficacy of radiation

## CC(=O)[O-].CC(=O)[O-].CCc1c(CC)c2cc3nc(cnc4cc(OCCOCCOCCOC)c(OCCOCCOCCOC)cc4ncc4nc(cc1[n-]2)C(CCCO)=C4C)C(C)=C3CCCO.O.[Lu+3] [LuTex, motexafin lutetium]
[1]
  kcat (first-order rate constant for the catalyst), NADPH oxidation: 0.00198 ± 0.000183 s⁻¹
  Km: 560 ± 200 µM
[2]
  cytotoxic effect of texaphyrin with 333 μM ascorbate: dose-response was observed
  cytotoxic effect of texaphyrin at lower concentrations of ascorbate: No inhibitory effect
  cytotoxic/inhibitory effect of texaphyrin in the absence of ascorbate: no inhibitory effect
MES-SA cells; corresponding experiments, Example 10B
  radiation sensitization, texaphyrin substituted for GdTex: sensitization was not obtained
Animal tumor models
  radiation sensitization in animal tumor models: did not possess similar radiation sensitization properties
